We go through 2 compounds from patent US20040153145A1, “Fixation method for bioprostheses” (Clemson University, priority 2002, published 2004).

The nature of data set [1]: Thermal denaturation temperature (Td) of fixed pericardium by DSC. Type of data set: physicochemical, bovine. Particulars: for Td after 24 hours / Td after 44 hours: bovine pericardium, +/− SEM, n = 6; for Td after 24 hours: fixation 24 hours; for Td after 44 hours: fixation 44 hours. As for the experimental part: Collagen rich tissue was used as a model to test the possible interference of TA with GA-mediated fixation. Samples of bovine pericardium (tissue including about 85% collagen and 5-10% elastin) was fixed at room temperature in one of either: 1% TA in phosphate buffered saline at pH 7.4 for 24 and 44 hours (TA); 0.5% GA in phosphate buffered saline at pH 7.4 for 24 and 44 hours (GA); 0.5% GA in phosphate buffered saline at pH 7.4 for 60 minutes followed by 1% TA in phosphate buffered saline at pH 7.4 for 24 and 44 hours (GA/TA); or 1% TA in phosphate buffered saline at pH 7.4 for 60 minutes followed by 0.5% GA in phosphate buffered saline at pH 7.4 for 24 and 44 hours (TA/GA). After fixation, tissues were washed in normal saline and the extent of cross-linking was evaluated by analysis of the thermal denaturation temperature (Td). Td reflects that the temperature at which native collagen molecules unravel (around 65° C.) is increased in chemically cross-linked tissues. […]. In the case of connective tissues, Td represents the temperature at which native collagen molecules unravel. This process leads to protein denaturation and is recorded as a peak maximum (FIG. 1). […] Tissues (native, GA fixed, TA fixed, and GA/TA combination fixed, as described above) were rinsed in saline and 2 mm^2 samples were cut and hermetically sealed in Differential Scanning Calorimetry (DSC) aluminum pans. Samples were heated at a rate of 10° C./min, from 25° C. to 110° C. and the temperature of thermal denaturation (Td) for each sample was recorded on a Perkin Elmer DSC 7 machine.
On the technique in general: In DSC, transitions show as peaks or steps in heat flow.

A short description of data set [2]: Mass loss of fixed aortic wall after elastase digestion. Details: species or system Porcine. Particulars: for % Mass Loss: porcine aortic wall fixed 7 days, 8.5 Units pancreatic elastase, 2 days, 37° C.; for increase in resistance to elastase of aorta: versus fresh aortic wall (60% mass loss in 2 days). Here is the method:
Porcine aorta fragments were collected from a local slaughterhouse and placed in ice-cold saline. The aorta fragments were fixed separately with GA, TA, and a combination of GA and TA as described below. Following fixation, the samples were treated with high concentrations of elastase to test resistance to enzymatic degradation.
(§1) Porcine aortic conduits were fixed for 7 days at room temperature in either:
0.6% GA in 50 mM Hepes buffered saline at pH 7.4 (GA);
0.3% TA in 50 mM Hepes buffered saline at pH 7.4 (TA); or
A mixture of 0.6% GA and 0.3% TA in 50 mM Hepes buffered saline at pH 7.4 (GA & TA).
After fixation, tissues were washed in normal saline followed by ddH2O and fragments of 4×4 mm were dissected and lyophilized. Tissue fragments from each group were weighed and incubated for 2 days (about 48 hours) at 37° C. with 8.5 Units of pancreatic elastase in elastase buffer (50 mM Tris, 1 mM CaCl2, 0.02% NaN3, pH 7.8). As positive controls, fresh, untreated tissues exposed to elastase solution were used. Tissue fragments were thoroughly rinsed in ddH2O, lyophilized and weighed. Mass loss due to enzyme digestion was calculated from the difference between tissue weight before and after incubation in elastase. Lower values of Mass Loss, set forth in Table 2 and FIG. 3, are indicative of better tissue preservation and improved putative protection of elastin from enzymatic degradation.

The nature of data set [3]: Calcification of fixed aorta after subdermal implantation in juvenile rats. Type of data set: in vivo, Sprague-Dawley rats. Particulars: porcine aorta, subdermal implant in juvenile rats, +/− SEM, n = 10. Here is the method:
Porcine aorta fragments were collected from a local slaughterhouse and placed in ice-cold saline. The aorta fragments were fixed with GA and separately with a combination of GA and TA as described below. Following fixation, samples were implanted subdermally in juvenile rats to test for calcification potential.
as §1
0.6% GA in 50 mM Hepes buffered saline at pH 7.4 (GA); or
a mixture of 0.6% GA and 0.3% TA in 50 mM Hepes buffered saline at pH 7.4 (GA & TA).
After fixation, tissues were washed in normal saline and fragments of 4×4 mm were tested for calcification by subdermal implantation in juvenile rats (the process used is described in detail by Bailey M, Xiao H, Ogle M, Vyavahare N., ‘Aluminum chloride pretreatment of elastin inhibits elastolysis by matrix metalloproteinases and leads to inhibition of elastin-oriented calcification,’ The American Journal of Pathology, 2001;159(6):1981-6, which is herein incorporated by reference). […]
At 7 and 21 days after implantation, rats were humanely euthanized, tissue samples explanted from their subdermal pouches, dried and analyzed for calcium content using atomic absorbtion spectrophotometry (as outlined in publication above). […]

The subject of data set [4] is pure elastin. The data set is described as follows: Degradation of orcein-labeled pure elastin by elastase. Type of data set: biochemical. Particulars: versus buffer control elastin, completely degraded. As for the experimental part: Pure elastin labeled with orcein was used as a substrate for the enzyme elastase. The labeled elastin substrate was used per se, as well as labeled elastin fixed separately with glutaraldehyde (GA) and with tannic acid (TA).
Purified insoluble elastin labeled with orcein was treated for 24 hours at room temperature with one of:
0.6% GA in 50 mM Hepes buffered saline at pH 7.4 (GA-fixed elastin);
0.3% TA in 50 mM Hepes buffered saline at pH 7.4 (TA-fixed elastin); or
50 mM Hepes buffered saline at pH 7.4 (Buffer control).
Elastin samples were centrifuged at 3000 rpm for 10 minutes at room temperature, rinsed with double distilled (dd)H2O and dialyzed in ddH2O. Treated elastin was suspended in elastase buffer (50 mM Tris, 1 mM CaCl2, 0.02% NaN3, pH 7.8) at a concentration of 20 mg/ml. A blank of labeled elastin incubated in the absence of elastase was also prepared for comparison.
Pure pancreatic elastase was prepared at a concentration of 1 Unit/ml in elastase buffer (described above), mixed with treated elastin samples in a 1 to 1 ratio and incubated at 37° C. for 3 days. Samples were centrifuged and elastin degradation was assessed by measuring the presence of soluble orcein-labeled elastin peptides in supernatants, by measuring optical density at 570 nm.

Regarding `O=C(OC[C@H]1O[C@@H](OC(=O)c2cc(O)c(O)c(OC(=O)c3cc(O)c(O)c(O)c3)c2)[C@H](OC(=O)c2cc(O)c(O)c(OC(=O)c3cc(O)c(O)c(O)c3)c2)[C@@H](OC(=O)c2cc(O)c(O)c(OC(=O)c3cc(O)c(O)c(O)c3)c2)[C@@H]1OC(=O)c1cc(O)c(O)c(OC(=O)c2cc(O)c(O)c(O)c2)c1)c1cc(O)c(O)c(OC(=O)c2cc(O)c(O)c(O)c2)c1` [TA, tannic acid], in data set [1], the “Td after 24 hours” value is 68.4 +/− 1.4 °C and the “Td after 44 hours” value is 72.6 +/− 0.9 °C. In data set [2], the “% Mass Loss” value is 41.56% and the “increase in resistance to elastase of aorta” value was “about 20%”.

Turning to `O=CCCCC=O` [GA, glutaraldehyde], in data set [3] (7 days), the “Calcium content after 7 days” value is recorded as 15.31 +/− 1.54 μg Ca/mg dry. Further, the “Calcium content after 21 days” value in data set [3] (21 days) is given as 42.18 +/− 2.21 μg Ca/mg dry. In data set [1], the “Td after 24 hours” value is 84.5 +/− 0.7 °C and the “Td after 44 hours” value is 85.1 +/− 1.1 °C. Also, the Td in data set [1] (pericardium, DSC 10° C./min, FIG. 1, fresh around 65° C.) amounted to 87 °C. Also, in data set [2], the “% Mass Loss” value worked out at 39.33% and the “increase in resistance to elastase of aorta” value was “about 20%”. In addition, the “reduction of elastin degradation by elastase” value in data set [4] came out at 6.7%.
